Measured values as given in ChEMBL document CHEMBL3507680, “University of Dundee, Gates Library screen for HepG2 cell viability”.

Assay: Human HepG2 cell viability assay in 384 well format
Format: toxicity, cell-based
Parameters: dose 125 nL, time 70.5 hour; concentration not given beside the values
Details: HepG2 cells, read-out: Inhibition

Row | SMILES | cytotoxicity at 70.5 h [%]
1 | CC(C)c1nnsc1CNC(=O)C1CCN(C(=O)C2CCC2)CC1 | -5.12
2 | CC(=O)Nc1nc(C(=O)N2CCCCC2Cn2cc(C)cn2)cs1 (configuration not stated) | 5.83
3 | CCSc1ncc(CN2CC[C@@](O)(COC)C(C)(C)C2)cn1 | -18.2
4 | CN1CCCn2c(nc(CNC(=O)c3nccn3C)cc2=O)C1 | -1.89
5 | c1cnc(N2CCC3(CCCN(CC4CC4)C3)CC2)nc1 | -6.6
6 | COc1c(Br)c(C(=O)NC2CCCCC2)nn1C | -15
7 | CC(C)c1ncc2c(n1)CN(Cc1nc(-c3cccnc3)no1)CC2 | 13.2
8 | Clc1ccc(CN2CCC(C3CCN(Cc4cccnc4)CC3)C2)cc1 (configuration not stated) | -2.87
9 | O=C(CCCc1ccccn1)N1CCCC(n2cccn2)C1 (configuration not stated) | -3.36
10 | CSc1nc(C2CC2)nc(C)c1C(=O)NCc1ncc(C)o1 | -2.47
11 | Cc1ccc2c(c1)Oc1ncccc1C(=O)N2 | -0.446
12 | Cn1nc(C(=O)NC2CC2)cc1NC(=O)C1CC1 | -7.34
13 | COc1cc2cc(C(=O)NCC(=O)O)n(C)c2c(OC)c1OC | 31.9
14 | CC(=O)N1CCC(CN2CCN(Cc3nccn3C)C(C)C2)CC1 (configuration not stated) | 2.21
15 | CC(C)c1nccn1-c1cncc(C2CCCN2Cc2cccnc2)n1 (configuration not stated) | -1.69
16 | CC(C)=CCC1(C(=O)O)CCCN(c2ccnc(C)n2)C1 (configuration not stated) | -3.8
17 | CSCCC1c2nc[nH]c2CCN1Cc1ccccc1C#N (configuration not stated) | -6.75
18 | Cc1nc(CN2CCCC(N(C)CC(=O)Nc3cccnc3)C2)no1 (configuration not stated) | 15.1
19 | CN(c1ccccc1)S(=O)(=O)c1cc2c(c(C(=O)O)c1)OCCO2 | -9.42
20 | CCNc1ncc(C(=O)N2Cc3nc(C)[nH]c(=O)c3C2)cn1 | 4.44
21 | Cc1nccn1CCCN1CCCC(c2nccn2CC2CCC2)C1 (configuration not stated) | -12.7
22 | O=C(N1CCCO1)[C@@]12CCO[C@@H]1CCN(Cc1ccsc1)C2 | -6.2
23 | O=C(CSC1CCCC1)N1CCN(c2ccc(-n3cncn3)nn2)CC1 | -2.51

Row | SMILES | cytotoxicity at 70.5 h [%]
24 | O=C(c1ncoc1-c1ccco1)N1CCCN(c2ncccn2)CC1 | -12.9
25 | CC[S+](CC)[c-]1c(=O)[nH]c(=O)n(CCc2ccc(F)cc2)c1=O | 3.7
26 | Cc1ccc(CN2CCC3(CC2)CC3CN(C)Cc2cccnc2)o1 (configuration not stated) | -5.02
27 | N#Cc1ccc(N2CCCN(CC(=O)N3CCOCC3)CC2)cc1 | 21.1
28 | Cc1noc([C@@]23CCO[C@@H]2CCN(C(=O)c2ccsc2)C3)n1 | -1.85
29 | CC(NC(=O)COc1ccc(F)cc1)c1nnc2n1CCCCC2 (configuration not stated) | -4
30 | COCC(=O)N1CC[C@@H](N2CCOCC2)[C@@H]1Cc1cccnc1 | -12.2
31 | CNC(=O)[C@H]1C[C@@H]2CCN(CCc3ccccc3)C[C@@H]2O1 | -4.11
32 | CN1CC2(CCCN(Cc3ccc(Oc4ccccc4)cc3)C2)OC1=O (configuration not stated) | 16.8
33 | Cc1cc2nc(C(C)C)cc(N[C@H](C(N)=O)C(C)C)n2n1 | 32.4
34 | CCN1C(=O)C2(CCCCC2)NC12CCSCC2 | -7.61
35 | O=C(CCC(F)(F)F)N1CCCC(CO)(CC2CC2)C1 (configuration not stated) | -8.1
36 | Cc1nccn1CCCC(=O)N1CCCN(c2cccnn2)CC1 | -2.35
37 | CCN1CCCC1CN(CCN(C)C)S(=O)(=O)c1ccc(C#N)cc1 (configuration not stated) | 2.57
38 | CCn1nnc(NCc2ccc(-c3ccc(Br)cc3)o2)n1 | -7.12
39 | COc1ccc(-n2cccn2)c(CN2CCC3(CCNCC3)C2)c1 | -9.48
40 | CC(C)NC(=O)c1cc2c(s1)CCN2c1ncccn1 | 3.85
41 | Cc1nccn1-c1ccc(=O)n(CCNC(=O)c2ccccn2)n1 | -6.46
42 | COc1ccc(-c2n[nH]c(C)c2CC(=O)N2CCOCC2)cc1 | -6.85
43 | Cc1ccc(CN2CCOC3(CCN(C(=O)C4CC=CC4)CC3)C2)cc1 | -2.99
44 | O=C(Nc1nnn[nH]1)c1cc(-c2ccc(Br)s2)n[nH]1 | -3.48
45 | O=C(COc1cccnc1)N1CCCC(n2cccn2)C1 (configuration not stated) | -2.58
46 | COc1cccc(-c2ccnc3nc(N4CCCCC4)[nH]c(=O)c23)c1 | 17.7

Row | SMILES | cytotoxicity at 70.5 h [%]
47 | CCc1ccc(-c2cn3c(C(=O)N[C@H](C(N)=O)[C@@H](C)O)csc3n2)cc1 | 15.1
48 | Cc1ccn(CCNC(=O)C2CCN(S(=O)(=O)c3ccc(F)cc3)C2)n1 (configuration not stated) | 8.09
49 | Cc1cc(C)cc(CCC(=O)N(C)CCc2cn[nH]c2)c1 | -14.2
50 | COc1nn(C)cc1-c1nnc(SCc2cccnc2)n1C | -5.69
51 | Cc1cc(N2CCC(C(=O)O)(n3ccc(C(C)(C)C)n3)CC2)nc(N)n1 | 0.151
52 | CO[C@@H]1CN(c2ccccc2)S(=O)(=O)[C@@]12CCNC2 | 11.6
53 | CNc1nc(C(=O)N2CCN(c3cc(C)nc(C)c3)CC2)cs1 | -9.69
54 | CCCc1cc(C(=O)N2CC(c3ccncc3)C2)ccn1 | 8.75
55 | COc1cccc2ccc(CN3CCN(c4ccncc4)CC3)nc12 | -9.89
56 | CN(C)CCNC(=O)c1nc2c(o1)CN(c1ncccn1)C2 | -3.63
57 | COc1cc(C(C)=O)ccc1OC12CCCN(CC1)C2 (configuration not stated) | 12.8
58 | CCC(=O)N1CCCC(C(=O)N2CCN(c3cnn(C)c(=O)c3)CC2)C1 (configuration not stated) | -12.7
59 | Cc1cc(C)n(CCCNC(=O)NCc2c(C)cc(C)[nH]c2=O)n1 | 2.42
60 | Cc1nc(-c2ccccc2)sc1CSCCC(N)=O | 12.1
61 | Cc1nc(NC(=O)CN2CCOC(Cn3cccn3)C2)sc1C (configuration not stated) | -7.06
62 | Cc1cccc(NC2CCc3c2[nH]c(=O)n(C2CCCCC2)c3=O)c1C (configuration not stated) | -19.3
63 | Cc1nc(C)n(CC2CCCN2Cc2cc(-c3cccs3)on2)n1 (configuration not stated) | -13.7
64 | c1csc(-c2nc(CNC3CCc4ncnn4C3)co2)c1 (configuration not stated) | -10
65 | CCc1ccc(CN2CCC3(CC2)NC(=O)CC3c2ccncc2)o1 (configuration not stated) | -23
66 | O=C(N[C@@H]1CN(Cc2ccc(F)c(F)c2)C[C@H]1O)c1cscn1 | -5.02
67 | CSCC(C)(O)CNc1ccccn1 (configuration not stated) | -1.72
68 | CCOC(=O)C1CCN(C(=O)c2cc(F)ccc2-n2cnnn2)CC1 | 3.28
69 | CC(C)Oc1ncccc1CNC(=O)c1cnccn1 | -5.94

Row | SMILES | cytotoxicity at 70.5 h [%]
70 | CN1CCc2c(C#N)c(NCc3cccnc3)n3cnnc3c2C1 | -27
71 | CN(Cc1n[nH]c2c1CCC2)C(=O)CCc1cc2n(n1)CCNC2 | -4.27
72 | O=C1OCCCN1Cc1nc(-c2ccncc2)no1 | -12.6
73 | COc1ccc(CCNC(=O)NCC(O)c2cccc(F)c2)cc1 (configuration not stated) | 8.74
74 | COC(=O)c1cc(C(=O)N2CCOCC2(C)C)n(-c2ccccc2)n1 | -0.593
75 | CCN(CC)CCNC(=O)c1cnc(-c2ccccc2)nc1 | -7.78
76 | CN(Cc1ccco1)C[C@H]1OC[C@@H]2CCN(Cc3ccccn3)C[C@@H]21 | -8.48
77 | Cn1cnc2c1CCN(Cc1csc(-c3ccco3)n1)C2 | 15.3
78 | COc1ccc2c3c1CN(S(C)(=O)=O)CC3=CC(C)(C)CO2 | -6.24
79 | Cc1[nH]c2ccccc2c1-c1ccnc(NC[C@H](O)CO)n1 | 26.8
80 | COc1nc(C)ccc1CNC(=O)NC(c1ncc(C)s1)C1CC1 (configuration not stated) | -2.73
81 | c1cc(C2CCN(c3ncnc4c3CCNCC4)CC2)ccn1 | -10.9
82 | Cc1cc(-c2cc(N)c(=O)n(CC(=O)NC3CCCCC3)n2)c(C)o1 | -15.5
83 | COc1cc(C)nc(N2CCN(C(=O)c3cc(C)no3)CC2)n1 | 26.3
84 | Cc1nnc([C@@H]2CCO[C@@H]3CCN(C(=O)Cc4ccsc4)C[C@@H]32)o1 | -5.87
85 | CC(C)n1ncc2cc(NC(=O)N3CCC(C(N)=O)C3)cnc21 (configuration not stated) | 16.7
86 | Cc1noc(C(C)N2CCN(CCc3ccncc3)CC2)n1 (configuration not stated) | -4.19
87 | Cc1ccc(C(=O)N(C)Cc2csc(Br)c2)c(=O)[nH]1 | 1.57
88 | O=C(Cn1cccnc1=O)NC(Cc1ccsc1)c1nccs1 (configuration not stated) | 17.6
89 | CS(=O)(=O)c1cncnc1C1CCCN(C(=O)NCc2ccccc2)C1 (configuration not stated) | -6.21
90 | CCOCCCNC(=O)c1nnn(Cc2ccccc2)c1OC | -4.93
91 | O=C(Cc1ccccc1F)NCC1CCN(CCc2ccccc2)C1 (configuration not stated) | -1.68
92 | CCCNS(=O)(=O)c1cnccc1N1CCN(C(C)C)CC1 | 7.02

Row | SMILES | cytotoxicity at 70.5 h [%]
93 | CCCn1cnc2c1CN(S(=O)(=O)Cc1ccccc1)[C@H](C(=O)OC)C2 | 0.651
94 | COc1c(CNC(c2ccc(F)cc2)C(C)(C)C)c(C)nn1C (configuration not stated) | 3.66
95 | Cc1nn(C)c(N(C)C)c1CNC1CCCCNC1=O (configuration not stated) | -4.25
96 | COCCN1C(=O)CC[C@]12CC[C@@H](NCc1ccc(OC)cc1)CC2 | 0.729
97 | COc1ccc(-c2cc3nc(CCNC(=O)C4CC4)nn3cn2)cc1 | 16.8
98 | O=C(CCO)N1C[C@H]2CC[C@@H]1CN(C1Cc3ccccc3C1)C2 | -9.88
99 | Cn1ccc(CNC(=O)N2CCC(C3(C)OCCO3)CC2)c1 | -8.7
100 | CC(C)Nc1nc2c(c(N(C)C)n1)CCN(Cc1nccn1C)CC2 | 10.1
101 | CC(C)N1CCN(C)CC(Cc2cc(N(C)C)ncn2)C1 (configuration not stated) | -3.36
102 | COc1cc(C(=O)N(C)Cc2cc(C(=O)O)c(C)o2)cc(OC)c1OC | -7.77
103 | O=C(Nc1ccccc1)N1C(CN2CCOCC2)[C@]2(O)CC[C@H]1CC2 (some centres not stated) | -2.88
104 | O=C([C@@H](O)Cc1ccccc1)N1CCCn2cncc2C1 | -7.92
105 | Cc1cccc(CN2CCC[C@@H]3CN(C(=O)c4ccco4)C[C@@H]32)n1 | -7.63
106 | O=C1C(NS(=O)(=O)c2ccc(F)c(F)c2)CCN1Cc1ccccc1 (configuration not stated) | -7.62
107 | CN(C)C(=O)Cn1cc(C(=O)N2CCCc3cccc(F)c32)nn1 | -17.3
108 | CN1CCN(S(=O)(=O)NCC2COc3ccccc3C2)CC1 (configuration not stated) | -3.52
109 | Cc1cccc(CN2C[C@@H]3CN(C(=O)NC(C)C)C[C@@H]3C2=O)n1 | -12
110 | O=C(C1CCOCC1)N1CCC2(CC1)CC(Oc1ccccc1)CO2 (configuration not stated) | 3.04
111 | CCn1nccc1S(=O)(=O)N1CCC2(CCCN(C(C)C)C2=O)C1 (configuration not stated) | -14.6
112 | CC(C)CCC(=O)N1CCN(c2ncnc3nc(N)ccc23)CC1 | -6.9
